“Also recorded” adds a separate entry of the source. Ends that are not written are not given here.
Columns and labels:
TYR [1] = target: T1, TYR (Agaricus bisporus, UniProt C7FF04); set-up: method as in 2 sources, one per row (each row's own in cited_ref): ref [48] = [48]; PMID 34313364; doi:10.1002/ardp.202100204; 48. Krobthong S. Yingchutrakul Y. Samutrtai P. Choowongkomon K. The C-terminally shortened analogs of a hexapeptide derived from Lingzhi hydrolysate with enhanced tyrosinase-inhibitory activity Arch. ||| ref [16],[17] = [16]; PMID 33459057; doi:10.1080/10408398.2021.1871724; 16. Peng Z.Y. Wang G.C. Zeng Q.H. Li Y.F. Liu H.Q. Wang J.J. Zhao Y. A systematic review of synthetic tyrosinase inhibitors and their structure-activity relationship Crit. Rev. Food Sci. Nutr. 2021 62 || [17]; PMID 35603815; doi:10.1111/1750-3841.16160; 17. Xue W. Liu X. Zhao W. Yu Z. Identification and molecular mechanism of novel tyrosinase inhibitory peptides from collagen J. Food Sci. 2022 87 2744 2756 10.1111/1750-3841.16160 35603815; settings: ref [16],[17]; cited from earlier work
T1 construct: purchased Shanghai Yuanye Bio-Technology Co., Ltd. (Shanghai, China)
T1 sequence (C7FF04 2-392): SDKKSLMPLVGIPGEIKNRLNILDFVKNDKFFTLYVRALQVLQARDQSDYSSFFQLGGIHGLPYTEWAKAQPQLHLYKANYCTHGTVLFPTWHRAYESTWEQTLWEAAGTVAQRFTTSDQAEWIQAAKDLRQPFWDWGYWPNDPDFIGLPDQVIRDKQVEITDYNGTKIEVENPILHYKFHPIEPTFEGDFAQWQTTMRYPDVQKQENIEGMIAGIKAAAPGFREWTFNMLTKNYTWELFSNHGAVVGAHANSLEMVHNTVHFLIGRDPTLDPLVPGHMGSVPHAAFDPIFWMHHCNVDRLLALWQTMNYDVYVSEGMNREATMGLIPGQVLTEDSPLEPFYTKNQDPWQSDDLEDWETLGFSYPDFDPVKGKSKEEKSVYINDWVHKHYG
Text: Bioactive peptides are functional peptide fragments produced during the hydrolysis, cleavage, or maturation of proteins, and their relative molecular mass is usually less than 6000 Da.

[2] = ref [47]; cited from earlier work
Text: Guo isolated and purified 29 antioxidant peptides from RJ and verified their antioxidant activity.

TYR [3] = target: T1, TYR; experiment: TYR inhibitory activity (L-DOPA oxidation); assay type: biochemical
Method: Determination and calculation methods of TYR inhibitory activity were referred to the detection method of Ji and modified slightly. Briefly, the TYR was dissolved to prepare solutions using 0.05 M phosphate buffer saline (pH 6.8). Then, the mixed 40 μL of ERJ, 2 U/mL 100 μL of TYR, and 1.0 mmol/L 100 μL of L-DOPA were added in a 96-well plate, and the absorbance at 475 nm was measured immediately after 10 s and recorded as A1. The reaction system was incubated for 190 s at 25 °C and measured again and recorded as A2. We repeated the above steps by replacing the ERJ with buffer and measuring the absorbance value after 10 s, recorded as A3, and the absorbance value after 190 s as A4. The inhibition rate of ERJ on TYR was calculated according to the following equation:(1) Inhibition percentage (%)=(1−ΔA/ΔB) × 100% where, ΔA = A2 − A1, ΔB = A4 − A3.

[4] = test system: fungus, yeast, and bacteria; settings: ref [45],[46]; cited from earlier work

## OC[C@H]1O[C@@H](Oc2ccc(O)cc2)[C@H](O)[C@@H](O)[C@@H]1O [arbutin]
TYR [1]
  inhibitory effect on TYR activity (in words), literature: strong inhibitory effects

## Oc1ccc(O)cc1 [hydroquinone]
TYR [1]
  inhibitory effect on TYR activity (in words), literature: strong inhibitory effects

## Arg-Tyr
[2]
  free radical scavenging ability: strong free radical scavenging ability

## IIPFIF [IIPFIF]
TYR [3]
  TYR inhibitory activity (in words): maximum activity; also recorded: highest of the three peptides

## ILFTLL [ILFTLL]
TYR [3]
  TYR inhibitory activity (in words): lowest activity; also recorded: lowest of the three peptides

## Tyr-Tyr
[2]
  free radical scavenging ability: strong free radical scavenging ability

B1: MRJP-4: major royal jelly protein (protein, UniProt Q17061 16-464, looked up)
Major royal jelly protein 4: QNIRGGVVRENSSGKNLTNTLNVIHKWKYLDYDFDNDERRQAAIQSGEYDRTKNYPLDVDQWHNKTFLAVIRYNGVPSSLNVVSDKTGNGGRLLQPYPDWSFAKYEDCSGIVSAHKIAIDEYERLWVLDSGLVNNTQPMCSPKLFAFDLNTSQLLKQVEIPHDVATTGKGELVSLTVQAMDSTNTMVYMVDNKNTLIIYQNADDSFHRLSSHTLNHNSDKMSDQQENLTLKEVDNKVYGMALSPVTHNLYYNSPSSENLYYVNTESLMKSENQGNDVQYERVQDVFDSQLTVKAVSKNGVLLFGLANNTLSCWNEHQSLDRQNIDVVARNEDTLQMVVSMKIKQNVPQSGRVNNTQRNEYLLALSDRNQNVLNNDLNLEHVNFQILGANVNDLIRNSRCANFDNQDNNHYNHNHNQARHSSKSDNQNNNQHNDQAHHSSKSNNRHNNND
[4]
  antibacterial properties: have antibacterial properties

B2: MRJP-2: major royal jelly protein (protein, UniProt O77061 18-452, looked up)
Major royal jelly protein 2: AIVRENSPRNLEKSLNVIHEWKYFDYDFGSEERRQAAIQSGEYDHTKNYPFDVDQWRDKTFVTILRYDGVPSTLNVISGKTGKGGRLLKPYPDWSFAEFKDCSKIVSAFKIAIDKFDRLWVLDSGLVNRTVPVCAPKLHVFDLKTSNHLKQIEIPHDIAVNATTGKGGLVSLAVQAIDLANTLVYMADHKGDALIVYQNADDSFHRLTSNTFDYDPRYAKMTIDGESFTLKNGICGMALSPVTNNLYYSPLASHGLYYVNTAPFMKSQFGENNVQYQGSEDILNTQSLAKAVSKNGVLFVGLVGNSAVGCWNEHQSLQRQNLEMVAQNDRTLQMIAGMKIKEELPHFVGSNKPVKDEYMLVLSNRMQKIVNDDFNFDDVNFRILGANVKELIRNTHCVNNNQNDNIQNTNNQNDNNQKNNKKNANNQKNNNQNDN
[4]
  antibacterial properties: have antibacterial properties

From paper PMC10252203, “Tyrosinase Inhibitory Peptides from Enzyme Hydrolyzed Royal Jelly: Production, Separation, Identification and Docking Analysis” (Foods, 2023)
